IC50 data for 25 compounds are collected here from patent publication US20250382279A1, “COMPOUNDS AND METHODS FOR YAP/TEAD MODULATION AND INDICATIONS THEREFOR” (OPNA BIO SA, priority 2023, published 2025).

In this assay the test system is TEAD-dependent transcription. Nature of the assay: Inhibitor activity against TEAD-dependent transcription in a cell-based reporter assay (MSTO-211H+12XGTIIC luciferase). The conditions noted are these: Homo sapiens; MSTO-211H+12XGTIIC cell line, 24 hours compound incubation, luminescence normalized to cell viability fluorescence; read-out: MSTO-211H GMean IC50 (uM) Cell Assay Reporter Cell Variant: TEAD. An excerpt:
Determine Inhibitor Activity Against TEAD-Dependent Transcription in a Cell-Based Reporter Assay
The human mesothelioma cell line MSTO-211H was stably transfected with a pGL4.21 plasmid containing a synthetic promoter with 12 copies of the GTIIC TEAD response element that drives the expression of a luciferase reporter gene^1 using Lipofectamine transfection reagent (Thermno Fisher). Transfected cells were selected using puromycin and single cell clones expressing this construct (referred to as MSTO-211H+12XGTIIC) were generated by limiting dilution. MSTO-211H cells was characterized by genetic alterations in key components of the Hippo pathway^2, resulting in up-regulation of YAP/TEAD-mediated transcription. […] To evaluate TEAD inhibitors, the MSTO-211H+12XGTIIC cell line was seeded in a 96-well plate in 50 μL of culture media at 1×10^4 cells per well and incubated at 37° C. overnight. Serial dilutions of compounds (in total volume of 50 μL of culture media) were added to the cells and incubated at 37° C. for 24 hours. Each plate included cells treated with DMSO as high controls and cells treated with 20 μM of the reference compound K-975 (a known TEAD inhibitor)^3 as low controls. Cell viability was assayed by the addition of 25 μL of CellTiter-Fluor reagent (Promega) followed by a 30-minute incubation at 37° C. and quantification of the fluorescence signal (Ex400/Em505). Subsequently, luciferase expression was assayed by the addition of 25 μL of ONE-Glo reagent (Promega) followed by a 10-minute incubation at room temperature and quantification of the luminescence signal. The luminescence signal was normalized to the fluorescence signal to correct for any loss in cell viability over the 24-hour compound incubation period. The percentage of inhibition of normalized luminescence signal, indicative of compound-mediated inhibition of TEAD-dependent transcription, at individual compound concentrations relative to high and low controls was calculated. The data were analyzed by using nonlinear regression to generate IC50 values for individual compounds.

As to `Nc1cccc(N2CCc3ccc(Oc4ccc(C(F)(F)F)cc4)cc3C2=O)n1` [O-0111, 2-(6-aminopyridin-2-yl)-7-(4-(trifluoromethyl)phenoxy)-3,4-dihydroisoquinolin-1(2H)-one], the IC50 lay in the range of 0.001 to 10 µM.
Consider `O=C1c2cccc(Oc3ccc(C(F)(F)F)cc3)c2CCN1c1ccnc([S+]([O-])C(F)(F)F)n1` (stereo not shown) [O-0112, 5-(4-(trifluoromethyl)phenoxy)-2-(2-((trifluoromethyl)sulfinyl)pyrimidin-4-yl)-3,4-dihydroisoquinolin-1(2H)-one], for which the IC50 was in the range of 0.001 to 10 µM.
In the case of `N#Cc1nc2ccc(N3CCc4c(Oc5ccc(C(F)(F)F)cc5)cccc4C3=O)cc2o1` [O-0017, 6-(1-oxo-5-(4-(trifluoromethyl)phenoxy)-3,4-dihydroisoquinolin-2(1H)-yl)benzo[d]oxazole-2-carbonitrile] it was 0.001 to 10 µM; in that of `Nc1cccc(N2CCc3c(Oc4ccc(C(F)(F)F)cc4)cccc3C2=O)c1` [O-0011, 2-(3-aminophenyl)-5-(4-(trifluoromethyl)phenoxy)-3,4-dihydroisoquinolin-1(2H)-one], 0.001 to 10 µM.
In the case of `Nc1cncc(N2CCc3ccc(Oc4ccc(C(F)(F)F)cc4)cc3C2=O)c1` [O-0110, 2-(5-aminopyridin-3-yl)-7-(4-(trifluoromethyl)phenoxy)-3,4-dihydroisoquinolin-1(2H)-one] it was 0.001 to 10 µM; in that of `O=C1c2cc(Oc3ccc(C(F)(F)F)cc3)ccc2CCN1c1cccc(S(=O)(=O)C(F)(F)F)n1` [O-0032, 7-(4-(trifluoromethyl)phenoxy)-2-(6-((trifluoromethyl)sulfonyl)pyridin-2-yl)-3,4-dihydroisoquinolin-1(2H)-one], 0.001 to 10 µM; in that of `O=C1c2cccc(Oc3ccc(C(F)(F)F)cc3)c2CCN1c1ccc2nc(C(F)(F)F)[nH]c2c1` [O-0016, 2-(2-(trifluoromethyl)-1H-benzo[d]imidazol-6-yl)-5-(4-(trifluoromethyl)phenoxy)-3,4-dihydroisoquinolin-1(2H)-one], 0.001 to 10 µM.
The same measure for `O=C1c2cc(Oc3ccc(C(F)(F)F)cc3)ccc2CCN1c1ccnc(S(=O)(=O)C(F)(F)F)n1` [O-0044, 7-(4-(trifluoromethyl)phenoxy)-2-(2-((trifluoromethyl)sulfonyl)pyrimidin-4-yl)-3,4-dihydroisoquinolin-1(2H)-one]: 0.001 to 10 µM; for `CS(=O)(=O)N1CCC(N2CCc3c(Oc4ccc(C(F)(F)F)cc4)cccc3C2=O)C1` (stereo not shown) [O-0027, 2-(1-(methylsulfonyl)pyrrolidin-3-yl)-5-(4-(trifluoromethyl)phenoxy)-3,4-dihydroisoquinolin-1(2H)-one]: 0.001 to 10 µM.
Regarding `O=C1c2cccc(Oc3ccc(C(F)(F)F)cc3)c2CCN1c1ccc(S(=O)(=O)C(F)(F)F)cc1` [O-0004, 5-(4-(trifluoromethyl)phenoxy)-2-(4-((trifluoromethyl)sulfonyl)phenyl)-3,4-dihydroisoquinolin-1(2H)-one], the 50% inhibitory concentration (IC50) was in the range of 0.001 to 10 µM.
The same measure for `CS(=O)(=O)N1CCCC(N2CCc3c(Oc4ccc(C(F)(F)F)cc4)cccc3C2=O)C1` (stereo not shown) [O-0022, 2-(1-(methylsulfonyl)piperidin-3-yl)-5-(4-(trifluoromethyl)phenoxy)-3,4-dihydroisoquinolin-1(2H)-one]: 0.001 to 10 µM.
The same measure for `CS(=O)(=O)c1nccc(N2CCc3ccc(Oc4ccc(C(F)(F)F)cc4)cc3C2=O)n1` [O-0036, 2-(2-(methylsulfonyl)pyrimidin-4-yl)-7-(4-(trifluoromethyl)phenoxy)-3,4-dihydroisoquinolin-1(2H)-one]: 0.001 to 10 µM; for `O=C1c2cc(Oc3ccc(C(F)(F)F)cc3)ccc2CCN1c1cccc(S(=O)(=O)C(F)(F)F)c1` [O-0035, 7-(4-(trifluoromethyl)phenoxy)-2-(3-((trifluoromethyl)sulfonyl)phenyl)-3,4-dihydroisoquinolin-1(2H)-one]: 0.001 to 10 µM.
In the case of `CS(=O)(=O)N1CCC(N2CCc3c(Oc4ccc(C(F)(F)F)cc4)cccc3C2=O)CC1` [O-0018, 2-(1-(methylsulfonyl)piperidin-4-yl)-5-(4-(trifluoromethyl)phenoxy)-3,4-dihydroisoquinolin-1(2H)-one] it was 0.001 to 10 µM; in that of `CS(=O)(=O)c1nccc(N2CCc3c(Oc4ccc(C(F)(F)F)cc4)cccc3C2=O)n1` [O-0007, 2-(2-(methylsulfonyl)pyrimidin-4-yl)-5-(4-(trifluoromethyl)phenoxy)-3,4-dihydroisoquinolin-1(2H)-one], 0.001 to 10 µM; in that of `O=C1c2cc(Oc3ccc(C(F)(F)F)cc3)ccc2CCN1c1cccc(-c2cscn2)c1` [O-0039, 2-(3-(thiazol-4-yl)phenyl)-7-(4-(trifluoromethyl)phenoxy)-3,4-dihydroisoquinolin-1(2H)-one], 0.001 to 10 µM.
With `CS(=O)(=O)c1cccc(N2CCc3ccc(Oc4ccc(C(F)(F)F)cc4)cc3C2=O)n1` [O-0031, 2-(6-(methylsulfonyl)pyridin-2-yl)-7-(4-(trifluoromethyl)phenoxy)-3,4-dihydroisoquinolin-1(2H)-one], the IC50 was 0.001 to 10 µM.
The same measure for `O=C1c2cccc(Oc3ccc(C(F)(F)F)cc3)c2CCN1c1ccc2nc(C(F)(F)F)sc2c1` [O-0014, 2-(2-(trifluoromethyl)benzo[d]thiazol-6-yl)-5-(4-(trifluoromethyl)phenoxy)-3,4-dihydroisoquinolin-1(2H)-one]: 0.001 to 10 µM.
In the case of `CS(=O)(=O)c1ccc(N2CCc3c(Oc4ccc(C(F)(F)F)cc4)cccc3C2=O)cc1` [O-0002, 2-(4-(methylsulfonyl)phenyl)-5-(4-(trifluoromethyl)phenoxy)-3,4-dihydroisoquinolin-1(2H)-one] it was 0.001 to 10 µM.
The same measure for `C=CC(=O)Nc1cncc(N2CCc3ccc(Oc4ccc(C(F)(F)F)cc4)cc3C2=O)c1` [O-0108, N-(5-(1-oxo-7-(4-(trifluoromethyl)phenoxy)-3,4-dihydroisoquinolin-2(1H)-yl)pyridin-3-yl)acrylamide]: 0.001 to 10 µM; for `O=C1c2cccc(Oc3ccc(C(F)(F)F)cc3)c2CCN1c1ccnc(S(=O)(=O)C(F)(F)F)n1` [O-0019, 5-(4-(trifluoromethyl)phenoxy)-2-(2-((trifluoromethyl)sulfonyl)pyrimidin-4-yl)-3,4-dihydroisoquinolin-1(2H)-one]: 0.001 to 10 µM; for `CS(=O)(=O)c1ccnc(N2CCc3ccc(Oc4ccc(C(F)(F)F)cc4)cc3C2=O)c1` [O-0033, 2-(4-(methylsulfonyl)pyridin-2-yl)-7-(4-(trifluoromethyl)phenoxy)-3,4-dihydroisoquinolin-1(2H)-one]: 0.001 to 10 µM.
Take `Nc1ccc(N2CCc3c(Oc4ccc(C(F)(F)F)cc4)cccc3C2=O)cc1` [O-0010, 2-(4-aminophenyl)-5-(4-(trifluoromethyl)phenoxy)-3,4-dihydroisoquinolin-1(2H)-one]: the 50% inhibitory concentration (IC50) was 0.001 to 10 µM.
On to `CS(=O)(=O)c1cccc(N2CCc3c(Oc4ccc(C(F)(F)F)cc4)cccc3C2=O)c1` [O-0001, 2-(3-(methylsulfonyl)phenyl)-5-(4-(trifluoromethyl)phenoxy)-3,4-dihydroisoquinolin-1(2H)-one], for which the IC50 fell in the range of 0.001 to 10 µM.
The same measure for `CS(=O)(=O)C1CC(N2CCc3c(Oc4ccc(C(F)(F)F)cc4)cccc3C2=O)C1` (stereo not shown) [O-0006, 2-(3-(methylsulfonyl)cyclobutyl)-5-(4-(trifluoromethyl)phenoxy)-3,4-dihydroisoquinolin-1(2H)-one]: 0.001 to 10 µM.
